Reference: patent publication US8841233B2, “Herbicidal compositions comprising 4-amino-3-chloro-5-fluoro-6-(4-chloro-2-fluoro-3-methoxyphenyl) pyridine-2-carboxylic acid or a derivative thereof and 4-hydroxyphenyl-pyruvate dioxygenase (HPPD) inhibitors” (Dow Agrosciences LLC, priority 2012, dated 2014)

Assays:
Assay in all cases: Pre-emergence soil-applied weed control, greenhouse (Example III)
IPOHE = type: in vivo, Ipomoea hederacea (L.) Jacq.; settings: 35 gai/ha
Source text: (§1) Evaluation of Pre-emergence Soil-Applied Herbicidal Mixtures for Weed Control
(§2) Seeds or nutlets of the desired test plant species were planted in a soil matrix prepared by mixing a loam soil (32 percent silt, 23 percent clay, and 45 percent sand, with a pH of about 6.5 and an organic matter content of about 1.9 percent) and calcareous grit in an 80 to 20 ratio. The soil matrix was contained in plastic pots with a volume of 1 quart and a surface area of 83.6 square centimeters (cm^2).
(§3) Treatments consisted of the benzyl ester of 4-amino-3-chloro-5-fluoro-6-(4-chloro-2-fluoro-3-methoxy-phenyl)pyridine-2-carboxylic acid (compound A) formulated as an SC (suspension concentrate) and various herbicidal components alone and in combination. Forms of compound A were applied on an acid equivalent basis.
(§4) Other herbicidal components were applied on an acid equivalent or active ingredient basis and included the 4-hydroxyphenyl pyruvate dioxygenase (HPPD)-inhibiting herbicide, isoxaflutole, formulated as Balance Pro®.
(§5) Treatment requirements were calculated based upon the rates being tested, the concentration of active ingredient or acid equivalent in the formulation, and a 12 mL application volume at a rate of 187 L/ha.
(§6) For treatments comprised of formulated compounds, measured amounts of compounds were placed individually in 25 mL glass vials and diluted in a volume of 1.25% (v/v) Agri-Dex® crop oil concentrate (COC) to obtain 12× stock solutions. […] Application solutions were prepared by adding an appropriate amount of each stock solution (e.g., 1 mL) and diluted to the appropriate final concentrations with the addition of 10 mL of an aqueous mixture of 1.25% (v/v) COC so that the final spray solutions contained 1.25% (v/v) COC.
(§7) All stock solutions and applications solutions were visually inspected for compound compatibility prior to application. Spray solutions were applied to the soil with an overhead Mandel track sprayer equipped with a 8002E nozzles calibrated to deliver 187 L/ha over an application area of 0.503 m^2 at a spray height of 18 inches (46 cm) above average pot height. Control pots were sprayed in the same manner with the solvent blank.
(§8) The treated and control pots were placed in a greenhouse and top watered as needed. When required to ensure good germination and healthy plants, a fungicide treatment and/or other chemical or physical treatment was applied. […] After approximately 4 weeks, the condition of the test plants as compared with that of the untreated plants was determined visually and scored on a scale of 0 to 100 percent where 0 corresponds to no injury or growth inhibition and 100 corresponds to complete kill. […]

XANST = type: in vivo, Xanthium strumarium L.; settings: 35 gai/ha
Source text: as §1, §2, §3, §4, §5, §6, §7, §8

SETVI = type: in vivo, Setaria viridis (L.) Beauv.
Source text: as §1, §2, §3, §4, §5, §6, §7, §8

## CS(=O)(=O)c1cc(C(F)(F)F)ccc1C(=O)c1cnoc1C1CC1 [Isoxaflutole, (5-cyclopropyl-4-isoxazolyl)[2-(methylsulfonyl)-4-(trifluoromethyl)phenyl]methanone, reference compound]
IPOHE
  Visual Weed Control (%) - 32 DAA IPOHE Obs: 43%
XANST
  Visual Weed Control (%) - 32 DAA XANST Obs: 75%
SETVI; 35 gai/ha
  Visual Weed Control (%) - 32 DAA SETVI Obs: 50%
SETVI; 70 gai/ha
  Visual Weed Control (%) - 32 DAA SETVI Obs: 93%
